Data from ChEMBL document CHEMBL5608235, “Tricyclic Benzo[1,3]oxazinyloxazolidinones as Potent Antibacterial Agents against Drug-Resistant Pathogens” (J Med Chem, 2024).
In brackets after ≈: the same amount, converted by molar mass. Activity calls are given as the source filed them. The rule behind the calls is not given here.

Key:
[1] = test system: Mycobacterium tuberculosis; experiment: Antibacterial activity against Mycobacterium tuberculosis H37Rv assessed as inhibition of bacterial growth incubated for 7 days by alamar blue assay; assay type: functional; conditions: 168 h, time 7 day
Staphylococcus aureus [2] = experiment: Antibacterial activity against Staphylococcus aureus ATCC25923 assessed as inhibition of bacterial growth incubated for 18 hrs by microdilution broth assay; assay type: functional
Enterococcus faecalis [3] = experiment: Antibacterial activity against Enterococcus faecalis ATCC29212 assessed as inhibition of bacterial growth incubated for 18 hrs by microdilution broth assay; assay type: functional
Bacillus subtilis = experiment: Antibacterial activity against Bacillus subtilis ATCC6633 assessed as inhibition of bacterial growth incubated for 18 hrs by microdilution broth assay; assay type: functional
Staphylococcus aureus [4] = experiment: Antibacterial activity against methicillin resistant Staphylococcus aureus clinical isolate 20-1 assessed as inhibition of bacterial growth incubated for 7 days by alamar blue assay; assay type: functional; conditions: clinical isolate 20-1, 168 h, time 7 day
Staphylococcus aureus [5] = experiment: Antibacterial activity against methicillin resistant Staphylococcus aureus clinical isolate 20-2 assessed as inhibition of bacterial growth incubated for 7 days by alamar blue assay; assay type: functional; conditions: clinical isolate 20-2, 168 h, time 7 day
[6] = test system: Staphylococcus epidermidis; experiment: Antibacterial activity against methicillin resistant Staphylococcus epidermidis clinical isolate 20-2 assessed as inhibition of bacterial growth incubated for 7 days by alamar blue assay; assay type: functional; conditions: clinical isolate 20-2, 168 h, time 7 day
Staphylococcus aureus [7] = experiment: Antibacterial activity against vancomycin intermediate Staphylococcus aureus ATCC700699 assessed as inhibition of bacterial growth incubated for 7 days by alamar blue assay; assay type: functional; conditions: ATCC700699, 168 h, time 7 day
Enterococcus = experiment: Antibacterial activity against vancomycin resistant Enterococcus clinical isolate 20-1 assessed as inhibition of bacterial growth incubated for 7 days by alamar blue assay; assay type: functional; conditions: clinical isolate 20-1, 168 h, time 7 day
Staphylococcus aureus [8] = experiment: Antibacterial activity against Linezolid resistant Staphylococcus aureus clinical isolate 20-2 assessed as inhibition of bacterial growth incubated for 7 days by alamar blue assay; assay type: functional; conditions: clinical isolate 20-2, 168 h, time 7 day
Enterococcus faecalis [9] = experiment: Antibacterial activity against Linezolid resistant Enterococcus faecalis clinical isolate 20-1 assessed as inhibition of bacterial growth incubated for 7 days by alamar blue assay; assay type: functional; conditions: clinical isolate 20-1, 168 h, time 7 day
Enterococcus faecalis [10] = experiment: Antibacterial activity against Linezolid resistant Enterococcus faecalis clinical isolate 20-2 assessed as inhibition of bacterial growth incubated for 7 days by alamar blue assay; assay type: functional; conditions: clinical isolate 20-2, 168 h, time 7 day
[11] = Metabolic stability in ICR mouse liver microsomes assessed as substrate remaining at 10 uM incubated for 60 mins in presence of NADPH by LC-MS/MS analysis; assay type: ADME, Microsome; conditions: read-out: Stability
[12] = Terminal half life in BALB/c mouse at 10 mg/kg,po administration measured upto 24 hrs by LC-MS/MS analysis; assay type: ADME, organism-based; conditions: in vivo, read-out: beta t1/2 (converted)
[13] = Cmax in BALB/c mouse at 10 mg/kg,po administration measured upto 24 hrs by LC-MS/MS analysis; assay type: ADME, organism-based; conditions: in vivo
[14] = AUC (0 to t) in BALB/c mouse at 1 mg/kg,iv administration measured upto 24 hrs by LC-MS/MS analysis; assay type: ADME, organism-based; conditions: in vivo
[15] = AUC (0 to t) in BALB/c mouse at 10 mg/kg,po administration measured upto 24 hrs by LC-MS/MS analysis; assay type: ADME, organism-based; conditions: in vivo
[16] = MRT (0 to t) in BALB/c mouse at 1 mg/kg,iv administration measured upto 24 hrs by LC-MS/MS analysis; assay type: ADME, organism-based; conditions: in vivo
[17] = MRT (0 to infinity) in BALB/c mouse at 1 mg/kg,iv administration measured upto 24 hrs by LC-MS/MS analysis; assay type: ADME, organism-based; conditions: in vivo
[18] = Volume of distribution in BALB/c mouse at 1 mg/kg,iv administration measured upto 24 hrs by LC-MS/MS analysis; assay type: ADME, organism-based; conditions: in vivo
[19] = Oral bioavailability in BALB/c mouse at 10 mg/kg administration measured upto 24 hrs by LC-MS/MS analysis; assay type: ADME, organism-based; conditions: BALB/c, in vivo
[20] = Tmax in BALB/c mouse at 10 mg/kg,po administration measured upto 24 hrs by LC-MS/MS analysis; assay type: ADME, organism-based; conditions: in vivo
Staphylococcus aureus [21] = experiment: Bacteriostatic activity against methicillin resistant Staphylococcus aureus ATCC 33592 at 1 times MIC incubated for 2 to 24 hrs by time-kill assay; assay type: functional, organism-based; conditions: time 2-24 hrs
Staphylococcus aureus [22] = experiment: (§1) Antibacterial activity against methicillin resistant Staphylococcus aureus ATCC 33592 infected in cyclophosphamide-induced immunosuppressed Kunming mouse assessed as reduction of bacterial load in liver at 10 to 50 mg/kg,po administration measured after 24 hrs by hematoxylin and eosin staining based microscopy; assay type: functional, organism-based; conditions: dose 10-50 mg/kg
Staphylococcus aureus [23] = experiment: as §1, with “in” for “of”, “lung” for “liver”; assay type: functional, organism-based; conditions: dose 10-50 mg/kg
Staphylococcus aureus [24] = experiment: Antibacterial activity against methicillin resistant Staphylococcus aureus ATCC 33592 infected in cyclophosphamide-induced immunosuppressed Kunming mouse assessed as increase in white blood cell at 25 to 50 mg/kg,po administration measured after 7 days by Giemsa staining based analysis; assay type: functional, organism-based; conditions: dose 25-50 mg/kg, time 7.0 day
Staphylococcus aureus [25] = experiment: Antibacterial activity against methicillin resistant Staphylococcus aureus ATCC 33592 infected in cyclophosphamide-induced immunosuppressed Kunming mouse assessed as increase in lymphocytes at 25 to 50 mg/kg,po administration measured after 7 days by Giemsa staining based analysis; assay type: functional, organism-based; conditions: dose 25-50 mg/kg, time 7.0 day
Staphylococcus aureus [26] = experiment: Antibacterial activity against methicillin resistant Staphylococcus aureus ATCC 33592 infected in cyclophosphamide-induced immunosuppressed Kunming mouse assessed as decrease in TNF-alpha level at po administration measured after 24 hrs by ELISA; assay type: functional, organism-based
Staphylococcus aureus [27] = experiment: Antibacterial activity against methicillin resistant Staphylococcus aureus ATCC 33592 infected in cyclophosphamide-induced immunosuppressed Kunming mouse assessed as increase in IL-10 level at po administration measured after 24 hrs by ELISA; assay type: functional, organism-based
Staphylococcus aureus [28] = experiment: as §1, with “in inflammatory cell infiltration” for “of bacterial load”, “at” for “at 10 to”; assay type: functional, organism-based
Staphylococcus aureus [29] = experiment: as §1, with “reduction” for “reduction of bacterial load”, “inflammatory cell infiltration in kidney” for “liver”, “at” for “at 10 to”; assay type: functional, organism-based
Staphylococcus aureus [30] = experiment: as §1, with “reduction” for “reduction of bacterial load”, “histopathological change in spleen” for “liver”, “10” for “10 to 50”; assay type: functional, organism-based
Staphylococcus aureus [31] = experiment: as §1, with “reduction” for “reduction of bacterial load”, “inflammatory cell infiltration in lung” for “liver”; assay type: functional, organism-based; conditions: dose 10-50 mg/kg
Cell membrane [32] = experiment: Disruption of cell membrane integrity in methicillin resistant Staphylococcus aureus ATCC 33592 assessed as increase in red fluorescence at 0.5 ug/ml incubated for 1 hr by […] and propidium iodide double staining based confocal microscopic analysis; assay type: cell membranes; conditions: dose 0.5 µg/ml
Cell membrane [33] = experiment: Disruption of cell membrane integrity in Staphylococcus aureus ATCC 25923 assessed as increase in blue fluorescence at 0.5 ug/ml incubated for 1 hr by […] and propidium iodide double staining based confocal microscopic analysis; assay type: cell membranes; conditions: dose 0.5 µg/ml
Cell membrane [34] = experiment: Disruption of cell membrane in methicillin resistant Staphylococcus aureus ATCC 33592 assessed as cell shrinkage at 0.5 ug/ml incubated for 6 hrs by Scanning electron microscopic analysis; assay type: cell membranes; conditions: dose 0.5 µg/ml
[35] = Free AUC in BALB/c mouse at 10 mg/kg,po administration measured upto 24 hrs by LC-MS/MS analysis; assay type: ADME, organism-based; conditions: in vivo

Compound `CC(=O)NC[C@@H]1OC(=O)N2Cc3cc(-c4ccc(C#N)cc4)c(F)cc3O[C@@H]12` has an MIC [1] of 0.52 µg/mL (≈ 1.36 µM), an MIC (Staphylococcus aureus [2]) of 0.5 µg/mL (≈ 1.31 µM) and an MIC (Enterococcus faecalis [3]) of 1 µg/mL (≈ 2.62 µM). For the same compound, the MIC (Bacillus subtilis) was 0.032 µg/mL (≈ 0.0839 µM), the MIC (Staphylococcus aureus [4]) was 0.5 µg/mL (≈ 1.31 µM) and the MIC (Staphylococcus aureus [5]) was 0.5 µg/mL (≈ 1.31 µM). For the same compound, the MIC [6] was 0.06 µg/mL (≈ 0.157 µM), the MIC (Staphylococcus aureus [7]) was 0.5 µg/mL (≈ 1.31 µM) and the MIC (Enterococcus) was 0.5 µg/mL (≈ 1.31 µM). The MIC (Staphylococcus aureus [8]) was 8 µg/mL (≈ 21 µM), the MIC (Enterococcus faecalis [9]) was 1 µg/mL (≈ 2.62 µM) and the MIC (Enterococcus faecalis [10]) was 1 µg/mL (≈ 2.62 µM). The remaining at 1 h, 10 µM [11] was 100%, the half-life [12] was 11.9 h and the Cmax [13] was 4510 ng/mL. For the same compound, the AUC(0-t) at 24 h [14] was 5120 ng·h/mL, the AUC(0-t) at 24 h [15] was 62500 ng·h/mL and the MRT last at 24 h [16] was 6.6 h. It also gave an MRT inf [17] of 6.7 h, a Vd [18] of 1.94 L/kg and a bioavailability [19] of 122%. The Tmax [20] was 2 h, the Activity (Staphylococcus aureus [21]) was “Active” and the Activity (Staphylococcus aureus [22]) was “Active”. The Activity (Staphylococcus aureus [23]) was “Active”, the Activity (Staphylococcus aureus [24]) was “Active” and the Activity (Staphylococcus aureus [25]) was “Active”. For the same compound, the Activity (Staphylococcus aureus [26]) was “Dose-Dependent Effect”, the Activity (Staphylococcus aureus [27]) was “Dose-Dependent Effect” and the Activity (Staphylococcus aureus [28]) was “Active”. For the same compound, the Activity (Staphylococcus aureus [29]) was “Active”, the Activity (Staphylococcus aureus [30]) was “Active” and the Activity (Staphylococcus aureus [31]) was “Active”. The Activity (Cell membrane [32]) was “Active”, the Activity (Cell membrane [33]) was “Active” and the Activity (Cell membrane [34]) was “Active”. For the same compound, the fAUC [35] was 14940 ng·h/mL.
